Columns and labels:
Assay in all cases: KinomeScan profiling
Assay type in all cases: binding
[1] = biological target: T1, ADCK3 (Homo sapiens, UniProt Q8NI60); details: ADCK3, 1 μM; read-out: % control
T1 construct: purchased KinomeScan®
How it was run: (§1)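 Single-point competition binding screen: 1 μM, DMSO, 468 kinases. Results reported as % control from RLU, normalised to DMSO and positive-control wells. Activity threshold: <35% control.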

[2] = biological target: T2, AKT2 (Homo sapiens, UniProt P31751); details: AKT2, 1 μM; read-out: % control
T2 construct: purchased KinomeScan®
How it was run: as §1

[3] = biological target: T3, CTK (Homo sapiens, UniProt P42679); details: read-out: % control
T3 sequence (P42679 1-507): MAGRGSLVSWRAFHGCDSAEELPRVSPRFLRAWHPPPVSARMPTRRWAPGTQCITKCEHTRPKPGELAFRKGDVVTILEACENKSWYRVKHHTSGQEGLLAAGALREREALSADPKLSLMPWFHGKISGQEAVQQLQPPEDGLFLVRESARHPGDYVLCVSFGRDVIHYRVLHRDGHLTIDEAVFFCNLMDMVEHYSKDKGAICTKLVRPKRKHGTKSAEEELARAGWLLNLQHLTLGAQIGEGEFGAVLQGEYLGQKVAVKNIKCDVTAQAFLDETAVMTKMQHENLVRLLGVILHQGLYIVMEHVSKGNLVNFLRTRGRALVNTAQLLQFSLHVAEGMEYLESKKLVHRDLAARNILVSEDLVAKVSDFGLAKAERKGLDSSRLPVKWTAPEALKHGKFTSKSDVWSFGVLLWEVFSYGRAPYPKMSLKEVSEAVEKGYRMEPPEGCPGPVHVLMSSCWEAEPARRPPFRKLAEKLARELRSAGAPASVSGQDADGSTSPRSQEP
How it was run: as §1

[4] = biological target: ERK3 (Homo sapiens, UniProt Q16659); details: ERK3, 1 μM; read-out: % control
How it was run: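 1 μM cpd in DMSO; 468-kinase panel; readout RLU. % ctrl = (cpd − pos ctrl)/(neg ctrl − pos ctrl) ×100. Pos ctrl = 0%, DMSO = 100%. Hit cut-off <35%.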

[5] = biological target: FGFR3(G697C) (Homo sapiens, UniProt P22607, G697C); details: read-out: % control
How it was run: as §1

[6] = biological target: T4, RIOK3 (Homo sapiens, UniProt O14730); details: RIOK3, 1 μM; read-out: % control
T4 sequence (O14730 1-519): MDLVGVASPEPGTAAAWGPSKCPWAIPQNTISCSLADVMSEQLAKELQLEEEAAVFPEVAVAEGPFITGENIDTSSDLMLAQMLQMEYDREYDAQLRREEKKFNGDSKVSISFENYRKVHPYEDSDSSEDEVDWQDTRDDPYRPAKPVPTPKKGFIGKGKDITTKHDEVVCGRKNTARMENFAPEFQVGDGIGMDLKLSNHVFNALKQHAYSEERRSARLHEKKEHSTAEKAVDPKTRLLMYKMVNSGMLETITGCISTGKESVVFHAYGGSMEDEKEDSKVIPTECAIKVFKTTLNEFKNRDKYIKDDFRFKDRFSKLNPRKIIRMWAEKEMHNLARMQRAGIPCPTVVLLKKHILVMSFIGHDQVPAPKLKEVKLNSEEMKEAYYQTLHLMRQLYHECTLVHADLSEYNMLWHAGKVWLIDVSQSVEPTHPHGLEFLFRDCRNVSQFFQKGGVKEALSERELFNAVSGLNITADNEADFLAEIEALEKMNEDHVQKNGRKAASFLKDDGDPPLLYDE
How it was run: as §1

[7] = biological target: T5, ULK1 (Homo sapiens, UniProt O75385); details: ULK1, 1 μM; read-out: % control
T5 sequence (O75385 1-1050): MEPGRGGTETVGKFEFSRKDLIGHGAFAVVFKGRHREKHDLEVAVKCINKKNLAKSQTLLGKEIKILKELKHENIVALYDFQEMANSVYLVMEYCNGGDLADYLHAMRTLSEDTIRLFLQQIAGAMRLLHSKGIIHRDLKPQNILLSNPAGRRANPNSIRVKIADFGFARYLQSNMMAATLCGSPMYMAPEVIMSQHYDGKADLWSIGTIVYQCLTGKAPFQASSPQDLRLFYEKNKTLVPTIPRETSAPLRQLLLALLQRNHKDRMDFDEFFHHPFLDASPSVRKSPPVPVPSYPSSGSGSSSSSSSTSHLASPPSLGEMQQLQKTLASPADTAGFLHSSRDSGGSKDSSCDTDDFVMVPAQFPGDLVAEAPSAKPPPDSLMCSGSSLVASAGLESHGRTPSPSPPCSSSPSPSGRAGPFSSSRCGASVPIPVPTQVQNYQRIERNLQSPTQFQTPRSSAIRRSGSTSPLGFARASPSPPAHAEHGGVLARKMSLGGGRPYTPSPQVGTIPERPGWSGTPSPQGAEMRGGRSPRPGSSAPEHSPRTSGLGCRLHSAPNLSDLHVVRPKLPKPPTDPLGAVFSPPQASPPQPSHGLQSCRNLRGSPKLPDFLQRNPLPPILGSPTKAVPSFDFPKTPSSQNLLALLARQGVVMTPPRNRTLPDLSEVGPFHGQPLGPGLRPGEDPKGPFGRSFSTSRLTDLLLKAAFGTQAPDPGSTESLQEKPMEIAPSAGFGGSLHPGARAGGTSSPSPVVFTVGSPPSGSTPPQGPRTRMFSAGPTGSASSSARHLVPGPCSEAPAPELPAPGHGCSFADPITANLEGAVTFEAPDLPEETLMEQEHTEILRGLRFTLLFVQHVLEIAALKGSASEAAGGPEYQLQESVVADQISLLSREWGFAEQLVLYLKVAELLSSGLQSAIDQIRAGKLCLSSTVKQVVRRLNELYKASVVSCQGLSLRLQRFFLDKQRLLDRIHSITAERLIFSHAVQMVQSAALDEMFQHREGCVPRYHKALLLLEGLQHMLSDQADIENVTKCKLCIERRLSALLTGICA
How it was run: as §1

[8] = biological target: VPS34 (Homo sapiens, UniProt Q8NEB9); details: VPS34, 1 μM; read-out: % control
How it was run: as §1

[9] = biological target: YANK3 (Homo sapiens, UniProt Q86UX6); details: YANK3, 1 μM; read-out: % control
How it was run: as §1

[10] = biological target: YES (Homo sapiens, UniProt P07947); details: read-out: % control
How it was run: as §1

Sequence of YES (P07947 whole entry): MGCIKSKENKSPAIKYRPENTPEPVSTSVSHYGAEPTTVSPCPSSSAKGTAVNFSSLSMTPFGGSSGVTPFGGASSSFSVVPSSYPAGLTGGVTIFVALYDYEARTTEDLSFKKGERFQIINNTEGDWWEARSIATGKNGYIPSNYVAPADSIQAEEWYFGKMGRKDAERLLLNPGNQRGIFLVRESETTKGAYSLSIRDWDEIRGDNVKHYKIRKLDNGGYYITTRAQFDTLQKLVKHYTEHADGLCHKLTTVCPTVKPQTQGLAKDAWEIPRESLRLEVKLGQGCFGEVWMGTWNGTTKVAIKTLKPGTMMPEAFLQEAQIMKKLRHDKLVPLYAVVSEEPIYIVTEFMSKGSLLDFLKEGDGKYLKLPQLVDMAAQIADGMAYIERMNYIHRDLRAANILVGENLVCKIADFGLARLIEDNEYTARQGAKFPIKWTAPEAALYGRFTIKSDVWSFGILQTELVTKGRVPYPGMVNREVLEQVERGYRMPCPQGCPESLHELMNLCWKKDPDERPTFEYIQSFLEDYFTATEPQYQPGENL
Sequence of ERK3 (Q16659 whole entry): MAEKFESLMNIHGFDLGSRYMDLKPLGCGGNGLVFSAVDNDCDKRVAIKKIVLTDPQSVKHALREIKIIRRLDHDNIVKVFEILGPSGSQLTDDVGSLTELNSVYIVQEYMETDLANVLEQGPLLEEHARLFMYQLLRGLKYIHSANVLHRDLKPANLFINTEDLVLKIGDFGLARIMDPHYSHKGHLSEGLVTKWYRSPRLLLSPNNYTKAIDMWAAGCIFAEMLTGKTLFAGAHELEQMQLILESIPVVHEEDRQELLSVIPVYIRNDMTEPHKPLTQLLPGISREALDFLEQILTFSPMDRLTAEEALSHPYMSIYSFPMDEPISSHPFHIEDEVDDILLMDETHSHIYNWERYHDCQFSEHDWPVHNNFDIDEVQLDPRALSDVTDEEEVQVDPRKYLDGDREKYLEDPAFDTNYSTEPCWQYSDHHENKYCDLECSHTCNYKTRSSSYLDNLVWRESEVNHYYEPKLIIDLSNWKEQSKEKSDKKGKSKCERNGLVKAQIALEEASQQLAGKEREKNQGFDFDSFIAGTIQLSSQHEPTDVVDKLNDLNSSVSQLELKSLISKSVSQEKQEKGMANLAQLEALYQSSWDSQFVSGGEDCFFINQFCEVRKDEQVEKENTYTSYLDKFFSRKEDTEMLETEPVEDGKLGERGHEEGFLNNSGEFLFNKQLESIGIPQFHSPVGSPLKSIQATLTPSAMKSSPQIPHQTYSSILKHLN
Sequence of FGFR3(G697C) (P22607 23-806 G697C): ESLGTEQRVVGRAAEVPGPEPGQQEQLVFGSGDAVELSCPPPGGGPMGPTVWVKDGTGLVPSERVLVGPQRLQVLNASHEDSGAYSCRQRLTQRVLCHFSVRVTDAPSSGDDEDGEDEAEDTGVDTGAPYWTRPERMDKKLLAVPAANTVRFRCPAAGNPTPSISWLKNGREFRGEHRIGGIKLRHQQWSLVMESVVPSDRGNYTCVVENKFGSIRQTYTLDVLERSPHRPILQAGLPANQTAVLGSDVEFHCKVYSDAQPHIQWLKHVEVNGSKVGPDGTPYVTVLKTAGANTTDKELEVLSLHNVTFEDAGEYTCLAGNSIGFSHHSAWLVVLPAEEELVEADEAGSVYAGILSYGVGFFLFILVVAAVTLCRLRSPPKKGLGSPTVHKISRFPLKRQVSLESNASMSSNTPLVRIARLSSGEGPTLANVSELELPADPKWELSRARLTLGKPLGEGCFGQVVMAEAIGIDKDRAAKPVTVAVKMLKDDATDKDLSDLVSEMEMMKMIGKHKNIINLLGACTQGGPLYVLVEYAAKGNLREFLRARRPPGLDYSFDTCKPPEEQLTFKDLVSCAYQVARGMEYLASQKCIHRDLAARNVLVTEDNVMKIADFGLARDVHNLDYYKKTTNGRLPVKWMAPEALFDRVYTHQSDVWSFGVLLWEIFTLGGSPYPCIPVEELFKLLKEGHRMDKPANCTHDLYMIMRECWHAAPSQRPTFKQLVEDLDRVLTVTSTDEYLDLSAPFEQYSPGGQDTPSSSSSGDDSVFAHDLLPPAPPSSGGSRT
T2 sequence (P31751 whole entry): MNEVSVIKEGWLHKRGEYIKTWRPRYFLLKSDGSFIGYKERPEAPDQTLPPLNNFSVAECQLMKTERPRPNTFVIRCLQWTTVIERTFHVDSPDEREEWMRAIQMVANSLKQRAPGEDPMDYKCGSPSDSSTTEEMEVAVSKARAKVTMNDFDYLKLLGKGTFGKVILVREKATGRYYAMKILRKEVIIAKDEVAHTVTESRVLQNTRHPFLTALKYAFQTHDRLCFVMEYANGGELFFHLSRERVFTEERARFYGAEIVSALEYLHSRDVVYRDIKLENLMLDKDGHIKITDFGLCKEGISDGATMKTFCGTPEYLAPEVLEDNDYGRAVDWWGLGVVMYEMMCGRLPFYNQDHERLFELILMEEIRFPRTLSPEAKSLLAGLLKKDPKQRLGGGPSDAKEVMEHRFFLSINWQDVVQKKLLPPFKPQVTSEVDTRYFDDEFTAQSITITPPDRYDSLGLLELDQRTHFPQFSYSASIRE
Sequence of VPS34 (Q8NEB9 whole entry): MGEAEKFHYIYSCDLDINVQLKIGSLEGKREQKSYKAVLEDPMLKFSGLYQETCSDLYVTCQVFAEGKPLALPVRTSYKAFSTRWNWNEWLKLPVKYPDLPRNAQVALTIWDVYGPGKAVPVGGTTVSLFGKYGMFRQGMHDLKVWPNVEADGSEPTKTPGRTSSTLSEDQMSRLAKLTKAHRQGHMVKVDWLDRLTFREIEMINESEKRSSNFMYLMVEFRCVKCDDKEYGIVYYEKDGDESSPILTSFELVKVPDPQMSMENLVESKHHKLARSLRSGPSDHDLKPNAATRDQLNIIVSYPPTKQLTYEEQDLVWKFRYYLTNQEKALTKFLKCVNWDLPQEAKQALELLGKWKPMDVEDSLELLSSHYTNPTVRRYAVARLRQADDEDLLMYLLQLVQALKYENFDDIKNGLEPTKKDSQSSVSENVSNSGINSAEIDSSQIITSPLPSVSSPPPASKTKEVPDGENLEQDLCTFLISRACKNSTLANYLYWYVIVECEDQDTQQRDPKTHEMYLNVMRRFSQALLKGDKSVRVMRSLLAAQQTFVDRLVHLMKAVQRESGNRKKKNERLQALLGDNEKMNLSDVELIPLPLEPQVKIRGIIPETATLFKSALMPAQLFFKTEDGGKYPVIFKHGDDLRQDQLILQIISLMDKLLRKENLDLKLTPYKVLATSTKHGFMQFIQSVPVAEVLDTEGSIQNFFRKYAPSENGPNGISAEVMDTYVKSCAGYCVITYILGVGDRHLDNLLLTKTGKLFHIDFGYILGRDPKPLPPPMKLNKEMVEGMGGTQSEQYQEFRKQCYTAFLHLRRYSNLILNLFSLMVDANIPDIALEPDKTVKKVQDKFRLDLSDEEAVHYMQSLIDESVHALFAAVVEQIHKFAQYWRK
T1 sequence (Q8NI60 163-647): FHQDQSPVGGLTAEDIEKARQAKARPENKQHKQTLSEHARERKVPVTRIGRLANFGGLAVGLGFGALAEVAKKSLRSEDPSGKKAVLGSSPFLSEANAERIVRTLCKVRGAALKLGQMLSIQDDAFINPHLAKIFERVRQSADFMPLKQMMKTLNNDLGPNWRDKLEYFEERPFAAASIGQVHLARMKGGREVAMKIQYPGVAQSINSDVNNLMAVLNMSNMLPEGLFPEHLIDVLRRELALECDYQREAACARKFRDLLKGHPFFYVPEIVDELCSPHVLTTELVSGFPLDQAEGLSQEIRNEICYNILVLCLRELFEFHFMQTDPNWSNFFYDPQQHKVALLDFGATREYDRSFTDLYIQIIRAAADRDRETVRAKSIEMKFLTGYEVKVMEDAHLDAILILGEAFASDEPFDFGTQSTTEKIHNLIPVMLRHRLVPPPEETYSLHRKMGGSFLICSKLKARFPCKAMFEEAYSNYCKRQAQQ
Sequence of YANK3 (Q86UX6 whole entry): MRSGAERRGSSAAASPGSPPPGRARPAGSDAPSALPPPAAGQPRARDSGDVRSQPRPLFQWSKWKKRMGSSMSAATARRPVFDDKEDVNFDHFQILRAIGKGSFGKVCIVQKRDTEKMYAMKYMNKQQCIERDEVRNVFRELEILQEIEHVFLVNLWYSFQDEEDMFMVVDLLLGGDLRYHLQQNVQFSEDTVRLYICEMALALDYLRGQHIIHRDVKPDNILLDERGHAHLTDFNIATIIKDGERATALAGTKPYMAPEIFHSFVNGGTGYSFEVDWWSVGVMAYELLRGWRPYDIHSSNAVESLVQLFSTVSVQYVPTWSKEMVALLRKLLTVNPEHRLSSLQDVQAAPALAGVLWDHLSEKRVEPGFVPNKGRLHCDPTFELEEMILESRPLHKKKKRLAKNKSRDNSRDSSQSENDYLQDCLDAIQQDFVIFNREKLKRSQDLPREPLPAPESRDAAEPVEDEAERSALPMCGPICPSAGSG

| Compound | remaining binding at 1 µM [1] [%] | remaining binding at 1 µM [2] [%] | remaining binding at 1 µM [3] [%] | remaining binding at 1 µM [4] [%] | remaining binding at 1 µM [5] [%] | remaining binding at 1 µM [6] [%] | remaining binding at 1 µM [7] [%] | remaining binding at 1 µM [8] [%] | remaining binding at 1 µM [9] [%] | remaining binding at 1 µM [10] [%] |
| --- | --- | --- | --- | --- | --- | --- | --- | --- | --- | --- |
| CNc1c(-c2cnn([C@H]3CCN(C(C)=O)C[C@@H]3F)c2)cnc2[nH]cc(Cl)c12 [Compound 77, 1-((3S,4S)-4-(4-(3-chloro-4-(methylamino)-1H-pyrrolo[2,3-b]pyridin-5-yl)-1H-pyrazol-1-yl)-3-fluoropiperidin-1-yl)ethan-1-one] | 100 | 100 | 97 | 87 | 51 | 24 | 3.1 | 35 | 97 | 100 |
| CNc1c(-c2ccc(C(=O)N3CCC(N4CCOCC4)CC3)cc2)cnc2[nH]cc(Cl)c12 [Compound 96, (4-(3-chloro-4-(methylamino)-1H-pyrrolo[2,3-b]pyridin-5-yl)phenyl)(4-morpholinopiperidin-1-yl)methanone] | 100 | 100 | 100 | 85 | 55 | 36 | 3.8 | 51 | 99 | 100 |
| O=C(c1ccc(-c2cnc3[nH]cc(Cl)c3c2NC2CCCC2)cc1)N1CCC(N2CCOCC2)CC1 [Compound 101, (4-(3-chloro-4-(cyclopentylamino)-1H-pyrrolo[2,3-b]pyridin-5-yl)phenyl)(4-morpholinopiperidin-1-yl)methanone] | 68 | 84 | 95 | 100 | 74 | 50 | 73 | 100 | 57 | 100 |

Source: patent US12275731B2, “Azaindole inhibitors of wild-type and mutant forms of LRRK2” (DANA-FARBER CANCER INSTITUTE, INC., priority 2018, dated 2025)
